What was measured:
[1] = Hydrophobicity, log P of the compound; assay type: physicochemical; details: octanol/water
[2] = system: Mythimna separata; assay: Antifeedant activity against second-instar larvae of Mythimna separata (Oriental armyworm) in compound treated leaves assessed as growth inhibition measured after 5 days by chronic growth bioassay; assay type: functional, organism-based; details: 120 h

| logP [1] | SMILES | EC50 ([2]; read-out: EC50) [µg/mL] | EC50 ([2]; read-out: pEC50 (converted)) [µM] |
| --- | --- | --- | --- |
| 2.89 | CC(C)(C)n1ncc(OCc2nnc(-c3ccccc3F)o2)c(Cl)c1=O | 16.8 | 16.8 |
| – | CCCCn1ncc(OCc2nnc(-c3ccc(F)cc3)o2)c(Cl)c1=O | 162 | 161 |
| – | CCCCn1ncc(OCc2nnc(-c3ccc(Cl)cc3)o2)c(Cl)c1=O | 224 | 223 |
| – | CCn1ncc(OCc2nnc(-c3ccccc3)o2)c(Cl)c1=O | > 300 | > 300 |
| – | CCn1ncc(OCc2nnc(-c3ccc(F)cc3)o2)c(Cl)c1=O | > 300 | > 300 |
| 3.06 | CC(C)(C)n1ncc(OCc2nnc(-c3c(F)c(F)c(F)c(F)c3F)o2)c(Cl)c1=O | 271 | 271 |
| 2.96 | CC(C)(C)n1ncc(OCc2nnc(-c3cc(F)c(F)cc3F)o2)c(Cl)c1=O | 75.7 | 75.7 |
| – | COc1c(F)c(F)cc(-c2nnc(COc3cnn(C(C)(C)C)c(=O)c3Cl)o2)c1F | > 300 | > 300 |
| 3.23 | CC(C)(C)n1ncc(OCc2nnc(-c3ccc(Cl)cc3F)o2)c(Cl)c1=O | 10.4 | 10.4 |
| 3.18 | CC(C)(C)n1ncc(OCc2nnc(-c3cc(F)c(F)c(F)c3F)o2)c(Cl)c1=O | 241 | 240 |
| 3.66 | CC(C)(C)n1ncc(OCc2nnc(-c3ccc(C(F)(F)F)cc3)o2)c(Cl)c1=O | 34.1 | 33.8 |
| – | Cc1nnc(COc2cnn(C(C)(C)C)c(=O)c2Cl)o1 | > 300 | > 300 |
| – | CC(C)(C)n1ncc(OCc2nnc(-c3ccco3)o2)c(Cl)c1=O | > 300 | > 300 |
| – | CC(C)(C)n1ncc(OCc2nnc(-c3cccs3)o2)c(Cl)c1=O | > 300 | > 300 |
| – | O=c1c(Cl)c(OCc2nnc(-c3ccccc3)o2)cnn1-c1ccccc1 | 91.5 | 91.4 |
| – | CCCCn1ncc(OCc2nnc(-c3ccccc3)o2)c(Cl)c1=O | > 300 | > 300 |
| 3.36 | CC(C)(C)n1ncc(OCc2nnc(-c3cc(F)c(Cl)cc3Cl)o2)c(Cl)c1=O | 23.1 | 23.1 |
| – | CC(C)(C)n1ncc(SCc2nnc(-c3ccccc3)o2)c(Cl)c1=O | > 300 | > 300 |
| – | CC(C)(C)n1ncc(SCc2nnc(-c3ccc(F)cc3)o2)c(Cl)c1=O | 150 | 151 |
| – | CC(C)(C)n1ncc(SCc2nnc(-c3cccc(F)c3)o2)c(Cl)c1=O | 243 | 243 |
| – | CC(C)(C)n1ncc(SCc2nnc(-c3ccccc3F)o2)c(Cl)c1=O | 269 | 270 |
| – | CC(C)(C)n1ncc(SCc2nnc(-c3ccc(Cl)cc3)o2)c(Cl)c1=O | 180 | 180 |
| – | Cc1cc(C)cc(-c2nnc(CSc3cnn(C(C)(C)C)c(=O)c3Cl)o2)c1 | > 300 | > 300 |
| – | Cc1cccc(-c2nnc(CSc3cnn(C(C)(C)C)c(=O)c3Cl)o2)c1 | > 300 | > 300 |
| – | CC(C)(C)n1ncc(SCc2nnc(-c3ccc([N+](=O)[O-])cc3)o2)c(Cl)c1=O | > 300 | > 300 |

| logP [1] | SMILES | EC50 ([2]; read-out: EC50) [µg/mL] | EC50 ([2]; read-out: pEC50 (converted)) [µM] |
| --- | --- | --- | --- |
| 3.21 | CC(C)(C)n1ncc(OCc2nnc(-c3ccc(Br)cc3)o2)c(Cl)c1=O | 21.4 | 21.4 |
| 3.52 | CC(C)(C)n1ncc(OCc2nnc(-c3ccc(Cl)cc3Cl)o2)c(Cl)c1=O | 27.8 | 27.8 |
| 3.19 | CC(C)(C)n1ncc(OCc2nnc(-c3ccccc3Cl)o2)c(Cl)c1=O | 61.2 | 61.2 |
| – | CC(C)(C)n1ncc(OCc2nnc(-c3ccccc3)s2)c(Cl)c1=O | 200 | 200 |
| – | CC(C)(C)n1ncc(OCc2nnc(-c3ccc(F)cc3)s2)c(Cl)c1=O | 21.5 | 21.5 |
| – | CC(C)(C)n1ncc(OCc2nnc(-c3ccccc3F)s2)c(Cl)c1=O | 121 | 121 |
| – | CC(C)(C)n1ncc(OCc2nnc(-c3ccc(Cl)cc3)s2)c(Cl)c1=O | 106 | 106 |
| – | CC(C)(C)n1ncc(OCc2nnc(-c3ccc(Cl)cc3Cl)s2)c(Cl)c1=O | 62.2 | 62.2 |
| – | CC(C)(C)n1ncc(OCc2nnc(-c3cc(F)c(Cl)cc3Cl)s2)c(Cl)c1=O | 67.1 | 67.1 |
| – | Cc1cccc(-c2nnc(COc3cnn(C(C)(C)C)c(=O)c3Cl)s2)c1 | > 300 | > 300 |
| – | Cc1cc(C)cc(-c2nnc(COc3cnn(C(C)(C)C)c(=O)c3Cl)s2)c1 | > 300 | > 300 |
| 2.75 | CC(C)(C)n1ncc(OCc2nnc(-c3c(F)cccc3F)o2)c(Cl)c1=O | 45.4 | 45.4 |
| – | CC(C)(C)n1ncc(OCc2nnc(-c3cc(F)c(Cl)c([N+](=O)[O-])c3Cl)o2)c(Cl)c1=O | > 300 | > 300 |
| 2.95 | CC(C)(C)n1ncc(OCc2nnc(-c3ccccc3)o2)c(Cl)c1=O | 12.2 | 12.2 |
| – | CC(C)(C)n1ncc(OCc2nnc(-c3ccc([N+](=O)[O-])cc3)o2)c(Cl)c1=O | > 300 | > 300 |
| 3.02 | Cc1cccc(-c2nnc(COc3cnn(C(C)(C)C)c(=O)c3Cl)o2)c1 | 116 | 116 |
| – | Cc1cc(C)cc(-c2nnc(COc3cnn(C(C)(C)C)c(=O)c3Cl)o2)c1 | > 300 | > 300 |
| 3.01 | Cc1ccc(-c2nnc(COc3cnn(C(C)(C)C)c(=O)c3Cl)o2)cc1 | 19.9 | 19.9 |
| 2.69 | CC(C)(C)n1ncc(OCc2nnc(-c3ccc(F)cc3)o2)c(Cl)c1=O | 5.2 | 5.2 |
| 3.52 | CCc1ccc(-c2nnc(COc3cnn(C(C)(C)C)c(=O)c3Cl)o2)cc1 | 14.5 | 14.5 |
| 3.09 | CC(C)(C)n1ncc(OCc2nnc(-c3ccc(Cl)cc3)o2)c(Cl)c1=O | 1.9 | 1.9 |
| 3.52 | COc1ccc(-c2nnc(COc3cnn(C(C)(C)C)c(=O)c3Cl)o2)cc1 | 17.7 | 17.7 |
| 2.69 | CC(C)(C)n1ncc(OCc2nnc(-c3cccc(F)c3)o2)c(Cl)c1=O | 7.1 | 7.1 |
| – | C/C=C(\C)C(=O)O[C@H]1C[C@@H](OC(C)=O)[C@@]2(C(=O)OC)CO[C@H]3[C@@H](O)[C@@](C)([C@]45O[C@@]4(C)[C@@H]4C[C@H]5O[C@@H]5OC=C[C@@]54O)[C@H]4[C@]1(CO[C@]4(O)C(=O)OC)[C@@H]32 [AZADIRACHTIN A] | 0.58 | 0.579 |

— ChEMBL document CHEMBL3046697, “Syntheses, antifeedant activity, and QSAR analysis of new oxa(thia)diazolyl 3(2H)-pyridazinones” (J Agric Food Chem, 2005)
